In ChEMBL document CHEMBL1127328, “Copper complexation by 3-hydroxypyridin-4-one iron chelators: structural and iron competition studies” (J Med Chem, 1994):

What was measured:
Format in all cases: ADME
[1] = Acid dissociation constant was determined
[2] = log K1 value of the compound
[3] = log K2 value of the compound
[4] = log K3 value of the compound

| Compound | pKa ([1]; read-out: pKa1) | Log K1 [2] | Log K2 [3] | pKa ([1]; read-out: pKa2) | Log K3 [4] |
| --- | --- | --- | --- | --- | --- |
| Oc1ccncc1O | 3.36 | 9.49 | 7.64 | – | – |
| Cc1c(O)c(=O)ccn1C [DEFERIPRONE] | 3.84 | 11.48 | 10.22 | 9.86 | 5.64 |
| CCn1ccc(=O)c(O)c1C | 3.79 | – | – | 9.79 | – |
| CCc1c(O)c(=O)ccn1C | 3.74 | – | – | 9.7 | – |
| Cn1ccc(=O)c(O)c1 | 3.35 | 9.35 | 7.58 | 8.8 | – |
| O=C(O)CCn1ccc(=O)c(O)c1 | 2.92 | 9.48 | 7.48 | 8.91 | – |
| CCc1c(O)c(=O)ccn1CC | 3.93 | 13.18 | 7.03 | 10.1 | 2.65 |
